This note sets out measurements from patent US7465741B2, “C-substituted tricyclic isoxazoline derivatives and their use as anti-depressants” (Janssen Pharmaceutica N.V., priority 2002, dated 2008).

The target of data set [1] is T1, hα2A receptor (Homo sapiens, UniProt P08913).
T1 construct: expressed in transfected cells; host or cells: CHO cells
T1 sequence (P08913 1-465): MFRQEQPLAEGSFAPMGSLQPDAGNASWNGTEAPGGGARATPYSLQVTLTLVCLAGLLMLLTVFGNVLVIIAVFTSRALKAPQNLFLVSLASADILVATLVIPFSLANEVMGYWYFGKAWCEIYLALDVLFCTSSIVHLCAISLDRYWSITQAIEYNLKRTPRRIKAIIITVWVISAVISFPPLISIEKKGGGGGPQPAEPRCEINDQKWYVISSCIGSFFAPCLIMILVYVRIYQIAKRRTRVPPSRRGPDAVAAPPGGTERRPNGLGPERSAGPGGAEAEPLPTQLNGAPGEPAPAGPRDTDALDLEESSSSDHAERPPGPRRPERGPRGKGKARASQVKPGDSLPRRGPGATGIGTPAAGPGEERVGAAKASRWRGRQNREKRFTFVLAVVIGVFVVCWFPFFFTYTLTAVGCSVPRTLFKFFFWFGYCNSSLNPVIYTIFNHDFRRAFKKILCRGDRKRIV
Put plainly: Radioligand binding experiment for hα2A receptor ([3H]-raulwolscine, CHO cell membranes). The note with it: [3H]-raulwolscine 1 nM, membranes of CHO cells transfected with human α2A receptor; read-out: pIC50 hα2A (converted). The method, then:
(§1) The interaction of the compounds according to Formula (I) with hα2-receptors and h5-HT-transporters was assessed in in vitro radioligand binding experiments. In general, a low concentration of a radioligand with a high binding affinity for a particular receptor or transporter is incubated with a sample of a tissue preparation enriched in a particular receptor or transporter or with a preparation of cells expressing cloned human receptors in a buffered medium. During the incubation, the radioligand binds to the receptor or transporter. When equilibrium of binding is reached, the receptor bound radioactivity is separated from the non-bound radioactivity, and the receptor- or transporter-bound activity is counted. The interaction of the test compounds with the receptor is assessed in competition binding experiments. Various concentrations of the test compound are added to the incubation mixture containing the receptor- or transporter preparation and the radioligand. The test compound in proportion to its binding affinity and its concentration inhibits binding of the radioligand. The radioligand used for hα2A, hα2B and hα2C receptor binding was [^3H]-raulwolscine and for the h5-HT transporter was [^3H]paroxetine.
(§2) CHO cells, stabile transfected with human adrenergic-α2A-, —α2B or α2C receptor cDNA, were cultured in Dulbecco's Modified Eagle's Medium (DMEM)/Nutrient mixture Ham's F12 (ratio 1:1)(Gibco, Gent-Belgium) supplemented with 10% heat inactivated fetal calf serum (Life Technologies, Merelbeke-Belgium) and antibiotics (100 IU/ml penicillin G, 100 μg/ml streptomycin sulphate, 110 μg/ml pyruvic acid and 100 μg/ml L-glutamine). One day before collection, cells were induced with 5 mM sodiumbutyrate. Upon 80-90% of confluence, cells were scraped in phosphate buffered saline without Ca^2+ and Mg^2+ and collected by centrifugation at 1500×g for 10 min. The cells were homogenised in Tris-HCl 50 mM using an Ultraturrax homogenizer and centrifuged for 10 min at 23,500×g. The pellet was washed once by resuspension and rehomogenization and the final pellet was resuspended in Tris-HCl, divided in 1 ml aliquots and stored at −70° C.
(§3) Membranes were thawed and re-homogenized in incubation buffer (glycylglycine 25 mM, pH 8.0). In a total volume of 500 μl, 2-10 μg protein was incubated with [^3H]raulwolscine (NET-722) (New England Nuclear, USA) (1 nM final concentration) with or without competitor for 60 min at 25° C. followed by rapid filtration over GF/B filter using a Filtermate196 harvester (Packard, Meriden, Conn.). Filters were rinsed extensively with ice-cold rinsing buffer (Tris-HCl 50 mM pH 7.4). Filter-bound radioactivity was determined by scintillation counting in a Topcount (Packard, Meriden, Conn.) and results were expressed as counts per minute (cpm). Non-specific binding was determined in the presence of 1 μM oxymetazoline for hα2A- and hα2B receptors and 1 μM spiroxatrine for hα2C receptors.
(§4) Data from assays in the presence of compound were calculated as a percentage of total binding measured in the absence of test compound. Inhibition curves, plotting percent of total binding versus the log value of the concentration of the test compound, were automatically generated, and sigmoidal inhibition curves were fitted using non-linear regression. The pIC50 values of test compounds were derived from individual curves.

Data set [2] addresses T2, hα2B receptor (Homo sapiens, UniProt P18089).
T2 construct: expressed in transfected cells; host or cells: CHO cells
T2 sequence (P18089 1-450): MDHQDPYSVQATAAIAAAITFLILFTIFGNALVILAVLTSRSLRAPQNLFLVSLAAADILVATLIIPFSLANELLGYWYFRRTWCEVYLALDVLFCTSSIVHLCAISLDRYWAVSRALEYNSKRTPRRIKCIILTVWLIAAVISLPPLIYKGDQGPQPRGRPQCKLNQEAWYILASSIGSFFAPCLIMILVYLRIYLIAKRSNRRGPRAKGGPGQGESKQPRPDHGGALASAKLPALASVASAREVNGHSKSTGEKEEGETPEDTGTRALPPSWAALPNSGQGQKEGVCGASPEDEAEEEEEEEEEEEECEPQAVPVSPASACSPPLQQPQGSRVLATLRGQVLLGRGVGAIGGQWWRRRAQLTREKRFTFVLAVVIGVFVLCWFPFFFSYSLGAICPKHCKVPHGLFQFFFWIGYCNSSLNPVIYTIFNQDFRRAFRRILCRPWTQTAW
Nature of the data set: Radioligand binding experiment for hα2B receptor ([3H]-raulwolscine, CHO cell membranes). The note with it: [3H]-raulwolscine 1 nM, membranes of CHO cells transfected with human α2B receptor; read-out: pIC50 hα2B (converted). How it is done: as §1, §2, §3, §4

Data set [3] deals with T3, hα2C receptor (Homo sapiens, UniProt P18825).
T3 construct: expressed in transfected cells; host or cells: CHO cells
T3 sequence (P18825 1-462): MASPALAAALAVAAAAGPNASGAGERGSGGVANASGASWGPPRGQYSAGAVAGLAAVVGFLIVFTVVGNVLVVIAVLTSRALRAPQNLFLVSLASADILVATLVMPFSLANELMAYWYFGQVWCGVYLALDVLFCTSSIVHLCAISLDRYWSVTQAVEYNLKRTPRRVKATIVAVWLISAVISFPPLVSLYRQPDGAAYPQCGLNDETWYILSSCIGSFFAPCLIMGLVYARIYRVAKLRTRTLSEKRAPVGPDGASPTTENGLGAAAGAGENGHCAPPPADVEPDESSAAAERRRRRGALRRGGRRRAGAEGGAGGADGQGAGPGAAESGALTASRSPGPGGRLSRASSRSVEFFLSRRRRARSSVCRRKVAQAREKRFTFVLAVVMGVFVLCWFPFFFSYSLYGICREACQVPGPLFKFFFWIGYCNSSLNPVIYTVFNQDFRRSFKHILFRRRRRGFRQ
Put plainly: Radioligand binding experiment for hα2C receptor ([3H]-raulwolscine, CHO cell membranes). The note with it: [3H]-raulwolscine 1 nM, membranes of CHO cells transfected with human α2C receptor; read-out: pIC50 hα2C (converted). The method, then: as §1, §2, §3, §4

Data set [4] concerns the target T4, h5-HT transporter (Homo sapiens, UniProt P31645).
T4 construct: Human platelet membranes (Oceanix Biosciences Corporation, Hanover, Md., USA) were thawed; tissue Oceanix Biosciences Corporation; host or cells: human platelet membranes
Nature of the data set: Radioligand binding experiment for 5-HT transporter ([3H]paroxetine, human platelet membranes). The note with it: [3H]paroxetine 0.5 nM, read-out: pIC50 h5HTT (converted). How it is done: as §1
Human platelet membranes (Oceanix Biosciences Corporation, Hanover, Md., USA) were thawed, diluted in buffer (Tris-HCl 50 mM, 120 mM NaCl and 5 mM KCl) and quickly (max 3 s) homogenised with an Ultraturrax homogenizer. In a total volume of 250 μL, 50-100 μg protein was incubated with [^3H]paroxetine (NET-869) (New England Nuclear, USA) (0.5 nM final concentration) with or without competitor for 60 min at 25° C. Incubation was stopped by rapid filtration of the incubation mixture over GF/B filters, pre-wetted with 0.1% polyethyleneamine, using a Filtermate 196 harvester (Packard, Meriden, Conn.). Filters were rinsed extensively with ice-cold buffer and radioactivity on the filters was counted in a Topcount liquid scintillation counter (Packard, Meriden, Conn.). Data were expressed as cpm. Imipramine (at 1 μM final concentration) was used to determine the non-specific binding.
as §4

Counter-ions that a name gives are not always drawn.

T4 sequence (P31645 whole entry): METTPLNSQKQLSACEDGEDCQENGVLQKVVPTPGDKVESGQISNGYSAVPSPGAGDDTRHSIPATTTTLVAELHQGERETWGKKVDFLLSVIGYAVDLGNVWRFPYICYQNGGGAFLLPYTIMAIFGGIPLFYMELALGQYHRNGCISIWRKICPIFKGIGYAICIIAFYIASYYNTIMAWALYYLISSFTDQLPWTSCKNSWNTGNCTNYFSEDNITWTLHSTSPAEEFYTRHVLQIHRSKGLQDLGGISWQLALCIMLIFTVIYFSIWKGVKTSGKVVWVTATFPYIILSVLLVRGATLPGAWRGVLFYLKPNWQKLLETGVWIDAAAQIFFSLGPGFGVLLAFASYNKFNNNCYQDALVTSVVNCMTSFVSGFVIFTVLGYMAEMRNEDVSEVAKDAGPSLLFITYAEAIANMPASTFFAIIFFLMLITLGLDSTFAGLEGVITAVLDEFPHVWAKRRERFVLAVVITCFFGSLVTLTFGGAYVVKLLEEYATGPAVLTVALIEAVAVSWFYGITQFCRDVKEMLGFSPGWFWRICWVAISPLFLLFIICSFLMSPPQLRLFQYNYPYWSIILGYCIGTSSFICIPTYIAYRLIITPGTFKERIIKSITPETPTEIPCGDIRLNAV

As to `CC(=Cc1ccccc1)CN1CCN(CC2ON=C3c4ccc(CN(C)CCO)cc4OCC32)CC1` (centres unmarked) (as salt: HCl) [Compound 9, 2-(Methyl-{3-[4-(2-methyl-3-phenyl-allyl)-piperazin-1-ylmethyl]-3a,4-dihydro-3H -chromeno[4,3-c]isoxazol-7-ylmethyl}-amino)-ethanol], the melting point (commonly the temperature of the solid-liquid transition) lay within 228.6 to 252.1 °C.
Consider `COc1cc2c(cc1CN1CCOCC1)OCC1C2=NOC1CN1CCN(CC(C)=Cc2ccccc2)CC1` (single isomer, unassigned) [Compound 20], for which the melting point is 66.5 to 89.8 °C. Also, the IC50 in data set [1] was 398 nM. Besides, the IC50 in data set [2] was 20 nM. The IC50 in data set [3] is 50.1 nM. The IC50 in data set [4] was 20 nM.
Compound `COc1cc2c(cc1CN1CCOCC1)OCC1C2=NOC1CN1CCN(CC(C)=Cc2ccccc2)CC1` (single isomer, unassigned) [Compound 21] showed a melting point of 56.1 to 68 °C. In data set [1], the IC50 was 15.8 nM. The IC50 in data set [2] was 6.31 nM. Moreover, in data set [3], the IC50 is 3.16 nM. Besides, the IC50 in data set [4] is 10 nM.
Take `COCCOCOCc1cc2c(cc1OC)C1=NOC(CN3CCN(C/C(C)=C/c4ccccc4)CC3)C1CO2` (centres unmarked) [Compound 6, 8-Methoxy-7-(2-methoxy-ethoxymethoxymethyl)-3-[4-(2-methyl-3-phenyl-allyl) -piperazin-1-ylmethyl]-3a,4-dihydro-3H-chromeno[4,3-c]isoxazole]: the IC50 in data set [1] is 7.94 nM; in data set [2], 2.51 nM; in data set [3], 0.794 nM; in data set [4] it was 31.6 nM.
Taken in the same sequence, the figures for `CC(=Cc1ccccc1)CN1CCN(CC2ON=C3c4ccc(CN(C)CCO)cc4OCC32)CC1` (centres unmarked) [Compound 9, 2-(Methyl-{3-[4-(2-methyl-3-phenyl-allyl)-piperazin-1-ylmethyl]-3a,4-dihydro-3H -chromeno[4,3-c]isoxazol-7-ylmethyl}-amino)-ethanol] were 1.26 nM, 0.501 nM, 0.2 nM and 25.1 nM.
As for `COc1cc2c(cc1CN1CCOCC1)OCC1C2=NOC1CN1CCN(C/C(C)=C/c2ccccc2)CC1` (centres unmarked) [Compound 10, 8-Methoxy-3-[4-(2-methyl-3-phenyl-allyl)-piperazin-1-ylmethyl]-7-morpholin-4-ylmethyl-3a,4-dihydro-3H-chromeno[4,3-c]isoxazole], the IC50 is 6.31 nM in data set [1], 3.98 nM in data set [2], 0.316 nM in data set [3] and 25.1 nM in data set [4].
In turn, `C/C(=C\c1ccccc1)CN1CCN(CC2ON=C3c4ccc(C#N)cc4OCC32)CC1` (centres unmarked) [Compound 13, 3-[4-(2-Methyl-3-phenyl-allyl)-piperazin-1-ylmethyl]-3a,4-dihydro-3H -chromeno[4,3-c]isoxazole-7-carbonitrile] returned a melting point of 132.2 to 146.7 °C. Moreover, the IC50 in data set [1] is 1.58 nM. Further, the IC50 in data set [3] is 0.501 nM. Moreover, the IC50 in data set [4] is 126 nM.
`COc1cc2c(cc1-c1ccc(C(C)=O)s1)OCC1C2=NOC1CN1CCN(CC(C)=Cc2ccccc2)CC1` (centres unmarked) [Compound 18, 1-(5-{8-Methoxy-3-[4-(2-methyl-3-phenyl-allyl)-piperazin-1-ylmethyl]-3a,4-dihydro-3H-chromeno[4,3-c]isoxazol-7-yl}-thiophen-2-yl)-ethanone] registered a melting point of 150.1 to 171.8 °C. In addition, the IC50 in data set [1] is 15.8 nM. The IC50 in data set [3] was 10 nM.
With `CCN(Cc1cc2c(cc1OC)C1=NOC(CN3CCN(CC(C)=Cc4ccc(F)cc4)CC3)C1CO2)C(C)C` (centres unmarked) [Compound 24], the IC50 was 39.8 nM in data set [1], 12.6 nM in data set [2], 5.01 nM in data set [3] and 3.98 nM in data set [4].
Consider `COc1cc2c(cc1CN1CCC(C)CC1)OCC1C2=NOC1CN1CCN(CC(C)=Cc2ccc(F)cc2)CC1` (centres unmarked) [Compound 25], for which the IC50 in data set [1] is 6.31 nM; in data set [2], 2.51 nM; in data set [3] it was 0.794 nM; in data set [4], 31.6 nM.
